Reference: PubChem BioAssay AID192 (DTP/NCI, 2004)
Inconclusive results and toxic doses are left out.

Tested on: BDF1 mice, B16 melanoma ip, median survival T/C
Test: NCI In Vivo Anticancer Drug Screen. Data for tumor model B16 Melanoma (intraperitoneal) in B6D2F1 (BDF1) mice
Settings: endpoint: median survival time, higher = longer survival
Summary of the method: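 The ratio T/C compares compound-treated mice with vehicle-treated controls, using survival or tumor size as the endpoint in a transplantable tumor model.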

[1] = dose: 100.0 mg/kg/injection, schedule: Q01DX009 (ip), vehicle: Klucel (hydroxypropylcellulose) (HPC)
[2] = dose: 200.0 mg/kg/injection, schedule: Q01DX009 (ip), vehicle: Klucel (hydroxypropylcellulose) (HPC)
[3] = dose: 400.0 mg/kg/injection, schedule: Q01DX009 (ip), vehicle: Klucel (hydroxypropylcellulose) (HPC)
[4] = dose: 12.5 mg/kg/injection, schedule: Q04DX003 (ip), vehicle: saline
[5] = dose: 25.0 mg/kg/injection, schedule: Q04DX003 (ip), vehicle: saline
[6] = dose: 50.0 mg/kg/injection, schedule: Q01DX009 (ip), vehicle: Klucel (hydroxypropylcellulose) (HPC)

Cc1ccc2c(Nc3ccc(NS(C)(=O)=O)cc3)c3ccccc3nc2c1C
T/C (dose: 5.0 mg/kg/injection, schedule: Q01DX009 (ip), vehicle: saline sonified): 90 % of control | T/C (dose: 20.0 mg/kg/injection, schedule: Q01DX009 (ip), vehicle: other): 117 % of control | T/C (dose: 20.0 mg/kg/injection, schedule: Q01DX009 (ip), vehicle: saline with Tween-80): 158 % of control | T/C (dose: 40.0 mg/kg/injection, schedule: Q01DX009 (ip), vehicle: saline sonified): 185 % of control | T/C (dose: 40.0 mg/kg/injection, schedule: Q01DX009 (ip), vehicle: saline with Tween-80): 163 % of control | T/C (dose: 50.0 mg/kg/injection, schedule: Q01DX009 (ip), vehicle: saline): 100 % of control

N#CCCN(CCC#N)c1ccc(C=O)cc1
T/C [1]: 104 % of control | T/C [2]: 98 % of control | T/C [3]: 102 % of control

OC(C(c1ccccc1)c1ccccn1)(C(F)(F)F)C(F)(F)F (stereo not given)
T/C (dose: 66.0 mg/kg/injection, schedule: Q04DX003 (ip), vehicle: saline with Tween-80): 112 % of control | T/C (dose: 100.0 mg/kg/injection, schedule: Q01DX009 (ip), vehicle: saline with Tween-80): 110 % of control | T/C (dose: 100.0 mg/kg/injection, schedule: Q04DX003 (ip), vehicle: saline with Tween-80): 117 % of control | T/C (dose: 150.0 mg/kg/injection, schedule: Q04DX003 (ip), vehicle: saline with Tween-80): 115 % of control | T/C (dose: 200.0 mg/kg/injection, schedule: Q01DX009 (ip), vehicle: saline with Tween-80): 112 % of control | T/C (dose: 400.0 mg/kg/injection, schedule: Q01DX009 (ip), vehicle: saline with Tween-80): 105 % of control

CCCC(=O)OC1C=C2N3C(=O)C4CC56C(=CC(OC(C)=O)C7OC75)N4C(=O)C3CC26C2OC12 (stereo not given)
T/C (dose: 0.13 mg/kg/injection, schedule: Q01DX009 (ip), vehicle: Klucel (hydroxypropylcellulose) (HPC)): 90 % of control | T/C (dose: 0.25 mg/kg/injection, schedule: Q01DX009 (ip), vehicle: Klucel (hydroxypropylcellulose) (HPC)): 101 % of control | T/C (dose: 0.5 mg/kg/injection, schedule: Q01DX009 (ip), vehicle: Klucel (hydroxypropylcellulose) (HPC)): 90 % of control

Cc1cccc2nc(-c3ccccc3)ccc12
T/C [4]: 107 % of control | T/C [5]: 105 % of control

CNC(C)Cc1ccccc1 (stereo not given)
T/C (dose: 3.75 mg/kg/injection, schedule: Q01DX009 (ip), vehicle: saline): 95 % of control | T/C (dose: 15.0 mg/kg/injection, schedule: Q01DX009 (ip), vehicle: saline): 95 % of control | T/C (dose: 30.0 mg/kg/injection, schedule: Q01DX009 (ip), vehicle: saline): 95 % of control

CCC1(CC)COC(=O)NC1=O
T/C (dose: 1.56 mg/kg/injection, schedule: Q01DX009 (ip), vehicle: saline): 105 % of control | T/C (dose: 3.12 mg/kg/injection, schedule: Q01DX009 (ip), vehicle: saline): 97 % of control | T/C (dose: 6.25 mg/kg/injection, schedule: Q01DX009 (ip), vehicle: saline): 105 % of control | T/C (dose: 12.5 mg/kg/injection, schedule: Q01DX009 (ip), vehicle: saline): 107 % of control

Cc1cc2ccccc2c[n+]1C
T/C [4]: 95 % of control | T/C [5]: 95 % of control | T/C (dose: 50.0 mg/kg/injection, schedule: Q04DX003 (ip), vehicle: saline): 95 % of control

COc1ccc2ccccc2c1C1NC(=O)c2ccccc2N1 (stereo not given)
T/C [6]: 106 % of control | T/C [1]: 108 % of control | T/C [2]: 109 % of control | T/C [3]: 115 % of control

CC(=O)C(N=Nc1ccccc1)C(C)=O
T/C (dose: 25.0 mg/kg/injection, schedule: Q01DX009 (ip), vehicle: Klucel (hydroxypropylcellulose) (HPC)): 100 % of control | T/C [6]: 113 % of control | T/C [1]: 113 % of control

C=C(C)C12OC3(c4ccccc4)OC1C1C4OC4(CO)C(O)C4(O)C(=O)C(C)=CC4C1(O3)C(C)C2OC(=O)c1ccccc1 (stereo not given)
T/C (dose: 0.1 mg/kg/injection, schedule: Q01DX009 (ip), vehicle: saline with Tween-80): 99 % of control | T/C (dose: 0.2 mg/kg/injection, schedule: Q01DX009 (ip), vehicle: saline with Tween-80): 101 % of control | T/C (dose: 0.4 mg/kg/injection, schedule: Q01DX009 (ip), vehicle: saline with Tween-80): 98 % of control
